Laboratory results from PubChem BioAssay AID248 (DTP/NCI, 2004).
Several values for one entry are separate records, joined by “and”; a condition that tells them apart may be missing. Equal entries are not always repeated. Inconclusive results and toxic doses are left out. Rule as the data show it: active = T/C of 150% or more; inactive = T/C below 125%.

Tested on: L1210 leukemia ip in BDF1 mice, survival T/C
Assay: NCI In Vivo Anticancer Drug Screen. Data for tumor model L1210 Leukemia (intraperitoneal) in B6D2F1 (BDF1) mice
Conditions: higher = longer survival
Outline: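 Survival endpoint. Drug-treated group vs vehicle group, expressed as T divided by C. Tumor passaged by transplantation.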

[1] = endpoint: mean survival time, dose: 50.0 mg/kg/injection, schedule: Q01DX001 (ip), vehicle: saline
[2] = endpoint: mean survival time, dose: 100.0 mg/kg/injection, schedule: Q01DX001 (ip), vehicle: saline
[3] = endpoint: mean survival time, dose: 200.0 mg/kg/injection, schedule: Q01DX001 (ip), vehicle: saline
[4] = endpoint: mean survival time, dose: 100.0 mg/kg/injection, schedule: Q01DX009 (ip), vehicle: saline with Tween-80
[5] = endpoint: mean survival time, dose: 200.0 mg/kg/injection, schedule: Q01DX009 (ip), vehicle: saline with Tween-80
[6] = endpoint: mean survival time, dose: 400.0 mg/kg/injection, schedule: Q01DX009 (ip), vehicle: saline with Tween-80
[7] = endpoint: mean survival time, dose: 100.0 mg/kg/injection, schedule: Q04DX003 (ip), vehicle: Klucel (hydroxypropylcellulose) (HPC)
[8] = endpoint: mean survival time, dose: 200.0 mg/kg/injection, schedule: Q04DX003 (ip), vehicle: Klucel (hydroxypropylcellulose) (HPC)
[9] = endpoint: mean survival time, dose: 100.0 mg/kg/injection, schedule: Q01DX009 (ip), vehicle: Klucel (hydroxypropylcellulose) (HPC)
[10] = endpoint: mean survival time, dose: 200.0 mg/kg/injection, schedule: Q01DX009 (ip), vehicle: Klucel (hydroxypropylcellulose) (HPC)
[11] = endpoint: mean survival time, dose: 400.0 mg/kg/injection, schedule: Q01DX009 (ip), vehicle: Klucel (hydroxypropylcellulose) (HPC)
[12] = endpoint: mean survival time, dose: 400.0 mg/kg/injection, schedule: Q04DX003 (ip), vehicle: Klucel (hydroxypropylcellulose) (HPC)
[13] = endpoint: mean survival time, dose: 100.0 mg/kg/injection, schedule: Q01DX009 (ip), vehicle: saline

Measured: T/C

CN(C)c1ccc(/C=C/c2ccnc3ccccc23)cc1
inactive: endpoint: mean survival time, dose: 4.0 mg/kg/injection, schedule: Q01DX Z (ip), vehicle: saline 103 % of control | endpoint: mean survival time, dose: 5.0 mg/kg/injection, schedule: Q01DX010 (ip), vehicle: saline 94 % of control and 100 % of control | endpoint: mean survival time, dose: 6.0 mg/kg/injection, schedule: Q01DX Z (ip), vehicle: saline 103 % of control | endpoint: mean survival time, dose: 8.0 mg/kg/injection, schedule: Q01DX Z (ip), vehicle: saline 103 % of control | endpoint: mean survival time, dose: 10.0 mg/kg/injection, schedule: Q01DX009 (ip), vehicle: saline 93 % of control and 101 % of control | endpoint: mean survival time, dose: 10.0 mg/kg/injection, schedule: Q01DX010 (ip), vehicle: saline 98 % of control | endpoint: mean survival time, dose: 10.0 mg/kg/injection, schedule: Q01DX Z (ip), vehicle: saline 97 % of control | endpoint: mean survival time, dose: 20.0 mg/kg/injection, schedule: Q01DX009 (ip), vehicle: saline 95 % of control and 97 % of control | endpoint: mean survival time, dose: 20.0 mg/kg/injection, schedule: Q01DX010 (ip), vehicle: saline 100 % of control and 91 % of control | endpoint: mean survival time, dose: 40.0 mg/kg/injection, schedule: Q01DX009 (ip), vehicle: saline 95 % of control and 88 % of control | endpoint: mean survival time, dose: 40.0 mg/kg/injection, schedule: Q01DX010 (ip), vehicle: saline 93 % of control and 100 % of control | [1] 101 % of control | endpoint: mean survival time, dose: 64.0 mg/kg/injection, schedule: Q01DX010 (iv), vehicle: saline 108 % of control | endpoint: mean survival time, dose: 80.0 mg/kg/injection, schedule: Q01DX009 (ip), vehicle: saline 101 % of control | endpoint: mean survival time, dose: 100.0 mg/kg/injection, schedule: Q01DX001 (ip), vehicle: carboxymethylcellulose (CMC) 103 % of control | [2] 97 % of control | endpoint: mean survival time, dose: 128.0 mg/kg/injection, schedule: Q01DX010 (iv), vehicle: saline 87 % of control | endpoint: mean survival time, dose: 200.0 mg/kg/injection, schedule: Q01DX001 (ip), vehicle: carboxymethylcellulose (CMC) 109 % of control | [3] 103 % of control | endpoint: mean survival time, dose: 256.0 mg/kg/injection, schedule: Q01DX010 (iv), vehicle: saline 92 % of control | endpoint: mean survival time, dose: 400.0 mg/kg/injection, schedule: Q01DX001 (ip), vehicle: carboxymethylcellulose (CMC) 106 % of control | endpoint: mean survival time, dose: 800.0 mg/kg/injection, schedule: Q01DX001 (ip), vehicle: carboxymethylcellulose (CMC) 97 % of control | endpoint: median survival time, dose: 10.0 mg/kg/injection, schedule: Q01DX009 (ip), vehicle: saline 100 % of control and 87 % of control | endpoint: median survival time, dose: 20.0 mg/kg/injection, schedule: Q01DX009 (ip), vehicle: saline 100 % of control and 87 % of control | endpoint: median survival time, dose: 40.0 mg/kg/injection, schedule: Q01DX009 (ip), vehicle: saline 93 % of control and 105 % of control | endpoint: median survival time, dose: 80.0 mg/kg/injection, schedule: Q01DX009 (ip), vehicle: saline 100 % of control and 87 % of control

O=C(OC(c1ccccc1)(C(F)(F)F)C(F)(F)F)c1ccccc1Sc1ccccc1
inactive: [4] 95 % of control | [5] 101 % of control | [6] 98 % of control

CCO/C=C1\SC(=S)N(c2ccc(C(=O)O)cc2)C1=O
inactive: endpoint: mean survival time, dose: 25.0 mg/kg/injection, schedule: Q01DX009 (ip), vehicle: saline with Tween-80 108 % of control | endpoint: mean survival time, dose: 50.0 mg/kg/injection, schedule: Q01DX009 (ip), vehicle: saline with Tween-80 100 % of control | endpoint: mean survival time, dose: 100.0 mg/kg/injection, schedule: Q01DX009 (ip), vehicle: saline sonified 97 % of control | endpoint: mean survival time, dose: 100.0 mg/kg/injection, schedule: Q04DX003 (ip), vehicle: saline sonified 99 % of control | endpoint: mean survival time, dose: 200.0 mg/kg/injection, schedule: Q04DX003 (ip), vehicle: saline sonified 102 % of control | endpoint: mean survival time, dose: 400.0 mg/kg/injection, schedule: Q04DX003 (ip), vehicle: saline sonified 108 % of control

CC(=O)OCC1OC(OC2=C(c3ccccc3)C(=O)C(OC3OC(COC(C)=O)C(OC(C)=O)C(OC(C)=O)C3OC(C)=O)=C(c3ccccc3)C2=O)C(OC(C)=O)C(OC(C)=O)C1OC(C)=O (centres undefined)
inactive: endpoint: mean survival time, dose: 100.0 mg/kg/injection, schedule: Q04DX002 (ip), vehicle: saline with Tween-80 91 % of control | endpoint: mean survival time, dose: 200.0 mg/kg/injection, schedule: Q04DX002 (ip), vehicle: saline with Tween-80 91 % of control | endpoint: mean survival time, dose: 400.0 mg/kg/injection, schedule: Q04DX002 (ip), vehicle: saline with Tween-80 95 % of control

Cc1ccc(NNP(Cl)(c2ccccc2)(c2ccccc2)c2ccccc2)cc1
inactive: [1] 92 % of control | [2] 97 % of control

CC(C)(O)CNC(=O)c1cccc([N+](=O)[O-])c1
inactive: [7] 94 % of control | [8] 88 % of control

[CH3][Sn]([CH3])([Cl])[Cl]
inactive: endpoint: mean survival time, dose: 29.0 mg/kg/injection, schedule: Q01DX009 (ip), vehicle: saline 112 % of control

CC(=Nc1cc(C)ccc1C)c1c(O)cc(C)oc1=O
inactive: [9] 97 % of control | [10] 97 % of control | [11] 103 % of control

NC(N)=N/N=C/c1cccc(F)c1
inactive: endpoint: mean survival time, dose: 15.0 mg/kg/injection, schedule: Q01DX Z (ip), vehicle: saline 111 % of control | endpoint: mean survival time, dose: 15.0 mg/kg/injection, schedule: Q01DX Z (oral), vehicle: saline 87 % of control | endpoint: mean survival time, dose: 30.0 mg/kg/injection, schedule: Q01DX Z (ip), vehicle: saline 90 % of control | endpoint: mean survival time, dose: 30.0 mg/kg/injection, schedule: Q01DX Z (oral), vehicle: saline 90 % of control

NC1(C(=O)O)Cc2ccccc2B(O)OC1=O (centres undefined)
inactive: [7] 98 % of control | [8] 96 % of control | [12] 106 % of control

CC(O)C1CCC2C3CCC4CC(SC(=O)c5ccccc5)CCC4(C)C3CCC12C (centres undefined)
inactive: endpoint: mean survival time, dose: 50.0 mg/kg/injection, schedule: Q01DX001 (sc), vehicle: steriod suspending solution 103 % of control | endpoint: mean survival time, dose: 100.0 mg/kg/injection, schedule: Q01DX001 (sc), vehicle: steriod suspending solution 97 % of control | endpoint: mean survival time, dose: 200.0 mg/kg/injection, schedule: Q01DX001 (sc), vehicle: steriod suspending solution 97 % of control | endpoint: mean survival time, dose: 400.0 mg/kg/injection, schedule: Q01DX001 (sc), vehicle: steriod suspending solution 94 % of control

O=C(Oc1ccccc1)c1ccccc1Cl
inactive: [9] 102 % of control | [4] 96 % of control | [7] 96 % of control | endpoint: mean survival time, dose: 100.0 mg/kg/injection, schedule: Q04DX003 (ip), vehicle: saline with Tween-80 100 % of control | [10] 98 % of control | [5] 101 % of control | [8] 96 % of control | endpoint: mean survival time, dose: 200.0 mg/kg/injection, schedule: Q04DX003 (ip), vehicle: saline with Tween-80 100 % of control | [11] 95 % of control | [6] 97 % of control | [12] 98 % of control | endpoint: mean survival time, dose: 400.0 mg/kg/injection, schedule: Q04DX003 (ip), vehicle: saline with Tween-80 110 % of control

CC1C(OC(=O)CCc2ccccc2)=CCC2C1(C)CCC1C2(C)CCC2(C)C3CC(C)(C)CCC3(C)CCC12C (centres undefined)
inactive: [1] 98 % of control | [2] 102 % of control | [3] 95 % of control

O=S(=O)(Cc1ccccc1)C(=C(N1CCCCC1)N1CCCCC1)S(=O)(=O)Cc1ccccc1
inactive: [2] 102 % of control | [13] 94 % of control | [3] 104 % of control | endpoint: mean survival time, dose: 200.0 mg/kg/injection, schedule: Q01DX009 (ip), vehicle: saline 93 % of control | endpoint: mean survival time, dose: 400.0 mg/kg/injection, schedule: Q01DX001 (ip), vehicle: saline 98 % of control | endpoint: mean survival time, dose: 400.0 mg/kg/injection, schedule: Q01DX009 (ip), vehicle: saline 96 % of control

O=c1[nH]cc(COCC(F)(F)C(F)(F)C(F)(F)F)c(=O)[nH]1
inactive: endpoint: mean survival time, dose: 50.0 mg/kg/injection, schedule: Q01DX005 (ip), vehicle: water 104 % of control | endpoint: mean survival time, dose: 100.0 mg/kg/injection, schedule: Q01DX005 (ip), vehicle: water 93 % of control | endpoint: mean survival time, dose: 200.0 mg/kg/injection, schedule: Q01DX005 (ip), vehicle: water 95 % of control | endpoint: mean survival time, dose: 400.0 mg/kg/injection, schedule: Q01DX005 (ip), vehicle: water 87 % of control

CC(C)C1C(=O)N2CCCC2C2(O)OC(NC(=O)C3C=C4c5cccc6[nH]cc(c56)CC4N(C)C3)(C(C)C)C(=O)N12 (centres undefined)
inactive: endpoint: mean survival time, dose: 25.0 mg/kg/injection, schedule: Q01DX009 (ip), vehicle: saline 94 % of control | endpoint: mean survival time, dose: 50.0 mg/kg/injection, schedule: Q01DX009 (ip), vehicle: saline 91 % of control | endpoint: mean survival time, dose: 50.0 mg/kg/injection, schedule: Q04DX003 (ip), vehicle: saline 106 % of control | [13] 94 % of control | endpoint: mean survival time, dose: 100.0 mg/kg/injection, schedule: Q04DX003 (ip), vehicle: saline 101 % of control | endpoint: mean survival time, dose: 200.0 mg/kg/injection, schedule: Q04DX003 (ip), vehicle: saline 108 % of control | endpoint: mean survival time, dose: 400.0 mg/kg/injection, schedule: Q04DX003 (ip), vehicle: saline 95 % of control
